Measurements as given in patent publication US10233191B2, “Fused piperidine amides as modulators of ion channels” (Vertex Pharmaceuticals Incorporated, priority 2013, dated 2019).
pIC50: −log10 of the molar value.

Each compound was assayed against T1, NaV 1.7 (Homo sapiens, UniProt Q15858) (assay: E-VIPR optical membrane potential assay with electrical stimulation). Settings: active against one or more sodium channels; assay/subtype not specified in Table 4; read-out: IC50 Binned Activity Data.
T1 construct: expressed in transfected cells; host or cells: HEK cells
Type: cell-based
Excerpt: E-VIPR Optical Membrane Potential Assay Method with Electrical Stimulation
Sodium channels are voltage-dependent proteins that can be activated by inducing membrane voltage changes by applying electric fields. The electrical stimulation instrument and methods of use are described in Ion Channel Assay Methods PCT/US01/21652, herein incorporated by reference and are referred to as E-VIPR. The instrument comprises a microtiter plate handler, an optical system for exciting the coumarin dye while simultaneously recording the coumarin and oxonol emissions, a waveform generator, a current- or voltage-controlled amplifier, and a device for inserting electrodes in well. Under integrated computer control, this instrument passes user-programmed electrical stimulus protocols to cells within the wells of the microtiter plate.
24 hours before the assay on E-VIPR, HEK cells expressing human NaV subtype, like NaV 1.7, are seeded in 384-well poly-lysine coated plates at 15,000-20,000 cells per well. Other subtypes are performed in an analogous mode in a cell line expressing the NaV of interest. HEK cells are grown in media (exact composition is specific to each cell type and NaV subtype) supplemented with 10% FBS (Fetal Bovine Serum, qualified; GibcoBRL #16140-071) and 1% Pen-Strep (Penicillin-Streptomycin; GibcoBRL #15140-122). Cells are grown in vented cap flasks, in 90% humidity and 10% CO2, to 100% confluence. They are usually split by trypsinization 1:10 or 1:20, depending on scheduling needs, and grown for 2-3 days before the next split.
• 100 mg/mL Pluronic F-127 (Sigma #P2443), in dry DMSO • Compound Plates: 384-well round bottom plate, e.g. Corning 384-well Polypropylene Round Bottom #3656 • Cell Plates: 384-well tissue culture treated plate, e.g. Greiner #781091-1B • 10 mM DiSBAC6(3) (Aurora #00-100-010) in dry DMSO • 10 mM CC2-DMPE (Aurora #00-100-008) in dry DMSO • 200 mM ABSC1 in H2O
Bath1 buffer. Glucose 10 mM (1.8 g/L), Magnesium Chloride (Anhydrous), 1 mM (0.095 g/L), Calcium Chloride, 2 mM (0.222 g/L), HEPES 10 mM (2.38 g/L), Potassium Chloride, 4.5 mM (0.335 g/L), Sodium Chloride 160 mM (9.35 g/L).
Hexyl Dye Solution: Bath1 Buffer+0.5% β-cyclodextrin (make this prior to use, Sigma #C4767), 8 μM CC2-DMPE+2.5 μM DiSBAC6(3). To make the solution Add volume of 10% Pluronic F127 stock equal to volumes of CC2-DMPE+DiSBAC6(3). The order of preparation is first mix Pluronic and CC2-DMPE, then add DiSBAC6(3) while vortexing, then add Bath1+β-Cyclodextrin.
1) Pre-spot compounds (in neat DMSO) into compound plates. Vehicle control (neat DMSO), the positive control (20 mM DMSO stock tetracaine, 125 μM final in assay) and test compounds are added to each well at 160× desired final concentration in neat DMSO. Final compound plate volume will be 80 μL (80-fold intermediate dilution from 1 μL DMSO spot; 160-fold final dilution after transfer to cell plate). Final DMSO concentration for all wells in assay is 0.625%.
2) Prepare Hexyl Dye Solution.
3) Prepare cell plates. On the day of the assay, medium is aspirated and cells are washed three times with 100 μL of Bath1 Solution, maintaining 25 μL residual volume in each well.
4) Dispense 25 μL per well of Hexyl Dye Solution into cell plates. Incubate for 20-35 minutes at room temp or ambient conditions.
5) Dispense 80 μL per well of Bath1 into compound plates. Acid Yellow-17 (1 mM) is added and Potassium Chloride can be altered from 4.5 to 20 mM depending on the NaV subtype and assay sensitivity.
6) Wash cell plates three times with 100 μL per well of Bath1, leaving 25 μL of residual volume. Then transfer 25 uL per well from Compound Plates to Cell Plates. Incubate for 20-35 minutes at room temp/ambient condition
7) Read Plate on E-VIPR. Use the current-controlled amplifier to deliver stimulation wave pulses for typically 9 seconds and a scan rate of 400 Hz. A pre-stimulus recording is performed for 0.5 seconds to obtain the un-stimulated intensities baseline. […]

T1 sequence (Q15858 whole entry): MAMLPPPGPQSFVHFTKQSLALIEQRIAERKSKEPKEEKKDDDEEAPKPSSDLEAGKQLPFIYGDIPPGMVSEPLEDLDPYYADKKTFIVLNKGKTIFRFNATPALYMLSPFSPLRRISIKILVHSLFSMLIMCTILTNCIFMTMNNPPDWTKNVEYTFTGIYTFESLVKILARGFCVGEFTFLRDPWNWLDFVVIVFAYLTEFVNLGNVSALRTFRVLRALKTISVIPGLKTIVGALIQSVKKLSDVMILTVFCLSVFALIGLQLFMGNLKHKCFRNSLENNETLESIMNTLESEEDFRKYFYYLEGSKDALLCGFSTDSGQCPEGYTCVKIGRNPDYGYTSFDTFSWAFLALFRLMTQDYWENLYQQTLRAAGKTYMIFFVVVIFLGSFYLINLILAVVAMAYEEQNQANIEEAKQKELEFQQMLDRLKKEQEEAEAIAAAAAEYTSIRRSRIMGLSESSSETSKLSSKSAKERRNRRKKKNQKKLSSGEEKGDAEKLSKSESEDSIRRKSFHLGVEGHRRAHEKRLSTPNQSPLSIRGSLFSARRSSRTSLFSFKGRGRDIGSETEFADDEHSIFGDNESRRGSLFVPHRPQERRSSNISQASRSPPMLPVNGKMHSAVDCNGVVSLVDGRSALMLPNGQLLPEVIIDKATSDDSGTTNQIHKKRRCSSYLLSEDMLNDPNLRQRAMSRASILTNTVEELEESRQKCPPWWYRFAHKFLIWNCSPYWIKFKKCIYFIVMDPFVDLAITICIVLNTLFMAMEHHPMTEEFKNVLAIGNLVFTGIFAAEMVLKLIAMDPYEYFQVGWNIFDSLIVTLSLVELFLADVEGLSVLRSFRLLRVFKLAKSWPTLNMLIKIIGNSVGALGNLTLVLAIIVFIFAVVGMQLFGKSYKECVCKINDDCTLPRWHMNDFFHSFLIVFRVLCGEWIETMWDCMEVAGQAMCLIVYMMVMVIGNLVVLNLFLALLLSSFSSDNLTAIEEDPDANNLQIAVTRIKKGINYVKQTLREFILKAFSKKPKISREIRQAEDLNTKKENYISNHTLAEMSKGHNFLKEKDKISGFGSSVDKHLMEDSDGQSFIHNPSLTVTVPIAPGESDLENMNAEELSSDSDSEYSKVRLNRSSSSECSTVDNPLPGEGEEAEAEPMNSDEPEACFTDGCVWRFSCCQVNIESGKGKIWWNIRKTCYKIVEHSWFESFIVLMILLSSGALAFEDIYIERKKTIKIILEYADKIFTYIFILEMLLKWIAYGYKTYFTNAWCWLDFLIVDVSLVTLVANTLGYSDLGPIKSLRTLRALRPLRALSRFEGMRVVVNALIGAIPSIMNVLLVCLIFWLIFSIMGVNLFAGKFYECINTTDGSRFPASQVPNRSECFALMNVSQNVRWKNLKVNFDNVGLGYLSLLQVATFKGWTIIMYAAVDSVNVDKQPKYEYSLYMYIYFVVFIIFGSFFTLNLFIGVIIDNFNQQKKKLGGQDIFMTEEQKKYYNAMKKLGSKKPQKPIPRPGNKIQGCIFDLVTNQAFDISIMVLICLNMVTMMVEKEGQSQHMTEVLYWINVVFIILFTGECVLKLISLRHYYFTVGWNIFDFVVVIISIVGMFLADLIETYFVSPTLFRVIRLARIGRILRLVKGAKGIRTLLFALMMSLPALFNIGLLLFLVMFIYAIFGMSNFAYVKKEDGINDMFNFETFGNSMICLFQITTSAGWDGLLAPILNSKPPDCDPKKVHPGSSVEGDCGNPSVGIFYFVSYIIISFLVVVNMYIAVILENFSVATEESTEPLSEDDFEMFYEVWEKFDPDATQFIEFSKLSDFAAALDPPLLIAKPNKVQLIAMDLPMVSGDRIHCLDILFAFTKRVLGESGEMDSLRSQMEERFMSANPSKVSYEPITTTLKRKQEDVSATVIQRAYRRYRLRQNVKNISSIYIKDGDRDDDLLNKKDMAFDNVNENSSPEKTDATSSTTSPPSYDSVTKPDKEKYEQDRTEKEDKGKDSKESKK

Compound	pIC50
Cc1cc(C(=O)N2CC[C@@]3(c4ccc(F)cc4)OCOC3C2)ccc1OCC(C)(C)O (stereo partly drawn) [Compound 58]	≥ 5.70
O=C(c1ccc(OCCOC(F)(F)F)c(F)c1)N1CC[C@@]2(c3nccs3)OCOC2C1 (stereo partly drawn) [Compound 59]	≥ 5.70
COc1nc(C(=O)N2CCC3(c4ccccc4)CC3C2)ccc1OCC(C)(C)O (stereo not drawn) [Compound 60]	≥ 5.70
COc1cc(C(=O)N2CC[C@]3(c4ccccn4)OCOC3C2)ccc1OC(C)CC(F)(F)F (stereo partly drawn) [Compound 61]	≥ 5.70
O=C(c1ccc(OCCOC(F)(F)F)c(F)c1)N1CC[C@]2(c3nccs3)OCOC2C1 (stereo partly drawn) [Compound 62]	5.30 to 5.70
Cc1cc(C(=O)N2CC[C@@]3(c4nccs4)OCOC3C2)ccc1OCC(F)(F)F (stereo partly drawn) [Compound 63]	≥ 5.70
COc1cc(C(=O)N2CC[C@@]3(c4ccccn4)COC[C@H]3C2)ccc1OCCOC(F)(F)F [Compound 64]	≥ 5.70
COc1cc(C(=O)N2CCC3(c4ccccc4)CC3C2)ccc1OCC1CCCO1 (stereo not drawn) [Compound 65]	≥ 5.70
COc1cc(C(=O)N2CCC3(c4ccccn4)OCCC3C2)ccc1OCCOC(F)(F)F (stereo not drawn) [Compound 66]	≥ 5.70
Cc1nc(C(=O)N2CC[C@]3(c4ncccc4Cl)OCOC3C2)ccc1OC(C)C (stereo partly drawn) [Compound 67]	≥ 5.70
COc1cc(C(=O)N2CCC3(c4ccccn4)OCOC3C2)ccc1OCCOC(F)(F)F (stereo not drawn) [Compound 68]	≥ 5.70
CC(C)(C)OCCOc1ccc(C(=O)N2CC[C@]3(c4ccccn4)OCOC3C2)cc1Cl (stereo partly drawn) [Compound 69]	≥ 5.70
Cc1cc(C(=O)N2CC[C@]3(c4nccs4)OCOC3C2)ccc1OCC(F)(F)F (stereo partly drawn) [Compound 70]	≥ 5.70
COc1cc(C(=O)N2CC[C@]3(c4ccccc4)OCOC3C2)ccc1OCC(C)(C)F (stereo partly drawn) [Compound 71]	≥ 5.70
COc1cc(C(=O)N2CC[C@]3(c4ccccn4)OCO[C@@H]3C2)ccc1OC(C)C(F)(F)F (stereo partly drawn) [Compound 72]	≥ 5.70
Cc1cc(C(=O)N2CC[C@@]3(c4ccccc4)OCOC3C2)ccc1OCC(C)(C)O (stereo partly drawn) [Compound 73]	≥ 5.70
Cc1nc([C@]23CCN(C(=O)c4ccc(OCC(C)(C)F)c(C)c4)CC2OCO3)cs1 (stereo partly drawn) [Compound 74]	≥ 5.70
Cc1cc(C(=O)N2CC[C@]3(c4ccccc4)OCOC3C2)ccc1OCC(C)(C)O (stereo partly drawn) [Compound 75]	≥ 5.70
O=C(c1cccc2cccnc12)N1CC[C@]2(c3ccccc3)OCOC2C1 (stereo partly drawn) [Compound 76]	≥ 5.70
Cc1cc(C(=O)N2CC[C@]3(c4ccccc4)OCOC3C2)ccc1OC(C)C (stereo partly drawn) [Compound 77]	≥ 5.70
COc1cc(C(=O)N2CC[C@@]3(c4csc(C)n4)OCOC3C2)ccc1OCCOC(F)(F)F (stereo partly drawn) [Compound 78]	≥ 5.70
Cc1cc(C(=O)N2CCC3(c4ccccc4)CC3C2)ccc1OC(C)C (stereo not drawn) [Compound 79]	≥ 5.70
Cc1cc(C(=O)N2CC[C@]3(c4cccc(OCC(C)C)n4)OCOC3C2)ccc1OCCOC(F)(F)F (stereo partly drawn) [Compound 80]	≥ 5.70
Cc1cc(C(=O)N2CC[C@@]3(c4ccccc4)OCOC3C2)ccc1OC(C)C (stereo partly drawn) [Compound 81]	5.30 to 5.70
Cc1cc(C(=O)N2CC[C@@]3(c4nccs4)OCOC3C2)ccc1OCC(C)(C)F (stereo partly drawn) [Compound 82]	≥ 5.70
COc1cc(C(=O)N2CCC3(c4ccccc4)CC3C2)ccc1COCC(F)(F)F (stereo not drawn) [Compound 83]	≥ 5.70
O=C(c1ccc(OCC2CC2(F)F)c(C(F)(F)F)c1)N1CC[C@]2(c3ccccn3)OCOC2C1 (stereo partly drawn) [Compound 84]	≥ 5.70
COc1cc(C(=O)N2CC[C@]3(c4nccs4)OCOC3C2)ccc1OCCOC(F)(F)F (stereo partly drawn) [Compound 85]	≥ 5.70
COc1cc(C(=O)N2CC[C@@]3(c4nccs4)OCOC3C2)ccc1OCCOC(F)(F)F (stereo partly drawn) [Compound 86]	≥ 5.70
CC(C)(C)OCCOc1ccc(C(=O)N2CC[C@]3(c4ncccc4OCCOC(C)(C)C)OCOC3C2)cc1Cl (stereo partly drawn) [Compound 87]	≥ 5.70
